From paper PMC9681820, “A PDE10A inhibitor CPL500036 is a novel agent modulating striatal function devoid of most neuroleptic side-effects” (Frontiers in Pharmacology, 2022)

Tests used:
vasopressin receptor = target: T1, vasopressin receptor (Homo sapiens, UniProt P37288); assay: SafetyScreen44 radioligand binding; details: agonist radioligand, read-out: % Inh (% inhibition of control specific binding)
T1 construct: purchased Eurofins Cerep (SafetyScreen44)
Experimental: (§1) The SafetyScreen44® assay was carried out by Eurofins (Poitiers, France) according to the service-provider’s protocol. CPL500036 (1 µM) was tested against a panel of […] potential off-targets proteins, including G protein-coupled receptors (GPCRs), transporters, ion channels, nuclear receptors kinases and other non-kinase enzymes, by use of a set of the binding assays.
(§2) Binding of CPL500036 was calculated as the percent binding inhibition of a radioactively labeled ligand specific for each target. Enzyme inhibition of CPL500036 was calculated as the percent inhibition of the activity of the control enzyme. “No interaction” was denoted if inhibition ≤ 25% of specific binding of the control. Determination of muscarinic acetylcholine receptor (M2) activity induced by CPL500036 (antagonism and agonism) was undertaken in human recombinant CHO cells by measurement of the intracellular cAMP level according to the service-provider’s protocol. IC50 (concentration causing a half-maximal inhibition of specific binding of the control) or EC50 (concentration causing a half-maximal response of specific binding of the control) and the Hill coefficient were determined by non-linear regression analysis of the competition curves generated with mean replicate values using Hill-equation curve fitting with software developed at Cerep (Celle-Lévescault, France).

κ-type opioid receptor = target: T2, κ-type opioid receptor (Rattus norvegicus, UniProt P34975); assay: SafetyScreen44 radioligand binding; details: agonist radioligand, read-out: % Inh (% inhibition of control specific binding)
T2 construct: purchased Eurofins Cerep (SafetyScreen44)
Experimental: as §1, §2

[1] = target: T3, cholecystokinin A receptor (Homo sapiens, UniProt P32238); assay: SafetyScreen44 radioligand binding; details: agonist radioligand, read-out: % Inh (% inhibition of control specific binding)
T3 construct: purchased Eurofins Cerep (SafetyScreen44)
Experimental: as §1, §2

dopamine receptor type 1 = target: T4, dopamine receptor type 1 (Homo sapiens, UniProt P21728); assay: SafetyScreen44 radioligand binding; details: read-out: % Inh (% inhibition of control specific binding)
T4 construct: purchased Eurofins Cerep (SafetyScreen44)
Experimental: as §1, §2

adenosine A2A receptor = target: T5, adenosine A2A receptor (Homo sapiens, UniProt P29274); assay: SafetyScreen44 radioligand binding; details: agonist radioligand, read-out: % Inh (% inhibition of control specific binding)
T5 construct: purchased Eurofins Cerep (SafetyScreen44)
Experimental: as §1, §2

[2] = target: T6, alpha-1A adrenergic receptor (Homo sapiens, UniProt P35348); assay: SafetyScreen44 radioligand binding; details: read-out: % Inh (% inhibition of control specific binding)
T6 construct: purchased Eurofins Cerep (SafetyScreen44)
Experimental: as §1, §2

Monoamine oxidase A = target: T7, Monoamine oxidase A (Rattus norvegicus, UniProt P21396); assay: SafetyScreen44 radioligand binding; details: read-out: % Inh (% inhibition of control specific binding)
T7 construct: purchased Eurofins Cerep (SafetyScreen44)
Experimental: as §1, §2

[3] = target: T8, alpha 4/beta 2 nicotinic acetylcholine receptor, (neuronal) (Homo sapiens, UniProt P17787+P43681); assay: SafetyScreen44 radioligand binding; details: agonist radioligand, read-out: % Inh (% inhibition of control specific binding)
T8 construct: purchased Eurofins Cerep (SafetyScreen44)
Experimental: as §1, §2

[4] = target: T9, histamine receptor type 2 (Homo sapiens, UniProt P25021); assay: SafetyScreen44 radioligand binding; details: read-out: % Inh (% inhibition of control specific binding)
T9 construct: purchased Eurofins Cerep (SafetyScreen44)
Experimental: as §1, §2

[5] = target: T10, muscarinic acetylcholine receptor type 3 (Homo sapiens, UniProt P20309); assay: SafetyScreen44 radioligand binding; details: read-out: % Inh (% inhibition of control specific binding)
T10 construct: purchased Eurofins Cerep (SafetyScreen44)
Experimental: as §1, §2

[6] = target: T11, histamine receptor type 1 (Homo sapiens, UniProt P35367); assay: SafetyScreen44 radioligand binding; details: read-out: % Inh (% inhibition of control specific binding)
T11 construct: purchased Eurofins Cerep (SafetyScreen44)
Experimental: as §1, §2

serotonin receptor 1A = target: T12, serotonin receptor 1A (Homo sapiens, UniProt P08908); assay: SafetyScreen44 radioligand binding; details: agonist radioligand, read-out: % Inh (% inhibition of control specific binding)
T12 construct: purchased Eurofins Cerep (SafetyScreen44)
Experimental: as §1, §2

dopamine transporter = target: T13, dopamine transporter (Homo sapiens, UniProt Q01959); assay: SafetyScreen44 radioligand binding; details: read-out: % Inh (% inhibition of control specific binding)
T13 construct: purchased Eurofins Cerep (SafetyScreen44)
Experimental: as §1, §2

[7] = target: T14, norepinephrine transporter (Homo sapiens, UniProt P23975); assay: SafetyScreen44 radioligand binding; details: read-out: % Inh (% inhibition of control specific binding)
T14 construct: purchased Eurofins Cerep (SafetyScreen44)
Experimental: as §1, §2

[8] = target: T15, muscarinic acetylcholine receptor type 1 (Homo sapiens, UniProt P11229); assay: SafetyScreen44 radioligand binding; details: read-out: % Inh (% inhibition of control specific binding)
T15 construct: purchased Eurofins Cerep (SafetyScreen44)
Experimental: as §1, §2

serotonin receptor 2A = target: T16, serotonin receptor 2A (Homo sapiens, UniProt P28223); assay: SafetyScreen44 radioligand binding; details: agonist radioligand, read-out: % Inh (% inhibition of control specific binding)
T16 construct: purchased Eurofins Cerep (SafetyScreen44)
Experimental: as §1, §2

[9] = target: T17, potassium voltage-gated channel subfamily H member 2 (hERG) (Homo sapiens, UniProt Q12809); assay: SafetyScreen44 radioligand binding; details: read-out: % Inh (% inhibition of control specific binding)
T17 construct: purchased Eurofins Cerep (SafetyScreen44)
Experimental: as §1, §2

dopamine receptor type 2 = target: T18, dopamine receptor type 2 (Homo sapiens, UniProt P14416); assay: SafetyScreen44 radioligand binding; details: agonist radioligand, read-out: % Inh (% inhibition of control specific binding)
T18 construct: purchased Eurofins Cerep (SafetyScreen44)
Experimental: as §1, §2

[10] = target: T19, alpha-2A adrenergic receptor (Homo sapiens, UniProt P08913); assay: SafetyScreen44 radioligand binding; details: read-out: % Inh (% inhibition of control specific binding)
T19 construct: purchased Eurofins Cerep (SafetyScreen44)
Experimental: as §1, §2

serotonin receptor 2B = target: T20, serotonin receptor 2B (Homo sapiens, UniProt P41595); assay: SafetyScreen44 radioligand binding; details: agonist radioligand, read-out: % Inh (% inhibition of control specific binding)
T20 construct: purchased Eurofins Cerep (SafetyScreen44)
Experimental: as §1, §2

[11] = target: T21, cannabinoid receptor type 2 (Homo sapiens, UniProt P34972); assay: SafetyScreen44 radioligand binding; details: agonist radioligand, read-out: % Inh (% inhibition of control specific binding)
T21 construct: purchased Eurofins Cerep (SafetyScreen44)
Experimental: as §1, §2

Endothelin receptor = target: T22, Endothelin receptor (Homo sapiens, UniProt P25101); assay: SafetyScreen44 radioligand binding; details: agonist radioligand, read-out: % Inh (% inhibition of control specific binding)
T22 construct: purchased Eurofins Cerep (SafetyScreen44)
Experimental: as §1, §2

glucocorticoid receptor = target: T23, glucocorticoid receptor (Homo sapiens, UniProt P04150); assay: SafetyScreen44 radioligand binding; details: agonist radioligand, read-out: % Inh (% inhibition of control specific binding)
T23 construct: purchased Eurofins Cerep (SafetyScreen44)
Experimental: as §1, §2

[12] = target: T24, beta-2 adrenergic receptor (Homo sapiens, UniProt P07550); assay: SafetyScreen44 radioligand binding; details: agonist radioligand, read-out: % Inh (% inhibition of control specific binding)
T24 construct: purchased Eurofins Cerep (SafetyScreen44)
Experimental: as §1, §2

[13] = target: T25, cannabinoid receptor type 1 (Homo sapiens, UniProt P21554); assay: SafetyScreen44 radioligand binding; details: agonist radioligand, read-out: % Inh (% inhibition of control specific binding)
T25 construct: purchased Eurofins Cerep (SafetyScreen44)
Experimental: as §1, §2

[14] = target: T26, beta-1 adrenergic receptor (Homo sapiens, UniProt P08588); assay: SafetyScreen44 radioligand binding; details: agonist radioligand, read-out: % Inh (% inhibition of control specific binding)
T26 construct: purchased Eurofins Cerep (SafetyScreen44)
Experimental: as §1, §2

µ -type opioid receptor = target: T27, µ -type opioid receptor (Homo sapiens, UniProt P35372); assay: SafetyScreen44 radioligand binding; details: agonist radioligand, read-out: % Inh (% inhibition of control specific binding)
T27 construct: purchased Eurofins Cerep (SafetyScreen44)
Experimental: as §1, §2

[15] = target: T28, δ-type opioid receptor ẟ2 (Homo sapiens, UniProt P41143); assay: SafetyScreen44 radioligand binding; details: agonist radioligand, read-out: % Inh (% inhibition of control specific binding)
T28 construct: purchased Eurofins Cerep (SafetyScreen44)
Experimental: as §1, §2

[16] = Plasma protein binding (equilibrium dialysis); type: in vitro ADME, rats
Experimental: The plasma protein binding study was carried out by Eurofins (Poitiers, France) according to the service-provider’s protocol. Briefly, the protein matrix was spiked with the test compound at 10 μM (n = 2) with a final DMSO concentration of 1%. The dialysate compartment was loaded with phosphate buffered saline (PBS, pH 7.4) and the sample side was loaded with equal volume of the spiked protein matrix. The dialysis plate was incubated at 37°C for 4 h. After the incubation, samples were taken from each compartment, diluted with the phosphate buffer followed by addition of acetonitrile and centrifugation. The supernatants were then used for HPLC-MS/MS analysis. Acebutolol, quinidine, and warfarin were tested as reference.

T4 sequence (P21728 whole entry): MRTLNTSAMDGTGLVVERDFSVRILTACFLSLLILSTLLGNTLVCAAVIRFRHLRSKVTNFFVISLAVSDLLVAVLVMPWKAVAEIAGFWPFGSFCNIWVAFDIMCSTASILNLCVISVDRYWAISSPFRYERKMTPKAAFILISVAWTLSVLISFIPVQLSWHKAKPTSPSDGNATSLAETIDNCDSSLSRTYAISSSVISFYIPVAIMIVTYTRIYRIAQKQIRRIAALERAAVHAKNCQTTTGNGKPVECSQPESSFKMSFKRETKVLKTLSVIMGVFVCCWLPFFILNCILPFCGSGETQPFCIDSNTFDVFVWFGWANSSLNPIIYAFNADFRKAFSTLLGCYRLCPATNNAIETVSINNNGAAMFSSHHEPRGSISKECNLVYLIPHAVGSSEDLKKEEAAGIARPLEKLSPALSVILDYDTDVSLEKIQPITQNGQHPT
T12 sequence (P08908 whole entry): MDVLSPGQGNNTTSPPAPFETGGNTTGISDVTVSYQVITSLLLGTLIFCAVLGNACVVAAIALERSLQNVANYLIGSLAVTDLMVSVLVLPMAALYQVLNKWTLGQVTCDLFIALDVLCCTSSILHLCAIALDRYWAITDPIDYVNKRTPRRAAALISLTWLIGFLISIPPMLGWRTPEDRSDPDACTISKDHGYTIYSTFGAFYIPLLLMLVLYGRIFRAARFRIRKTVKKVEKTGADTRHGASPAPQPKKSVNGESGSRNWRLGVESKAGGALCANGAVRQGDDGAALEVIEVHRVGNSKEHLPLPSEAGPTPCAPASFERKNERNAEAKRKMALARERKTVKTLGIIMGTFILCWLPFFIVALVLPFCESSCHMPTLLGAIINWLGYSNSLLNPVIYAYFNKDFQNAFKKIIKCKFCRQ
T21 sequence (P34972 whole entry): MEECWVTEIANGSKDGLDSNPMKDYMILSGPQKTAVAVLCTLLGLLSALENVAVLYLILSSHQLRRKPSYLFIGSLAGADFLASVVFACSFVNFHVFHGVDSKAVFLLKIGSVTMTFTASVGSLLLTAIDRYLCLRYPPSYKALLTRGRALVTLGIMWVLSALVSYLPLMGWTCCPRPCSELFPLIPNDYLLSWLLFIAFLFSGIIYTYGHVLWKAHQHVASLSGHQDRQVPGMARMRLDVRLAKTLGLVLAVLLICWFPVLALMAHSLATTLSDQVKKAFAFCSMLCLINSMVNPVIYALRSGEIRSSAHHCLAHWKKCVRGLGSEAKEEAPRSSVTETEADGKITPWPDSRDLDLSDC
T10 sequence (P20309 whole entry): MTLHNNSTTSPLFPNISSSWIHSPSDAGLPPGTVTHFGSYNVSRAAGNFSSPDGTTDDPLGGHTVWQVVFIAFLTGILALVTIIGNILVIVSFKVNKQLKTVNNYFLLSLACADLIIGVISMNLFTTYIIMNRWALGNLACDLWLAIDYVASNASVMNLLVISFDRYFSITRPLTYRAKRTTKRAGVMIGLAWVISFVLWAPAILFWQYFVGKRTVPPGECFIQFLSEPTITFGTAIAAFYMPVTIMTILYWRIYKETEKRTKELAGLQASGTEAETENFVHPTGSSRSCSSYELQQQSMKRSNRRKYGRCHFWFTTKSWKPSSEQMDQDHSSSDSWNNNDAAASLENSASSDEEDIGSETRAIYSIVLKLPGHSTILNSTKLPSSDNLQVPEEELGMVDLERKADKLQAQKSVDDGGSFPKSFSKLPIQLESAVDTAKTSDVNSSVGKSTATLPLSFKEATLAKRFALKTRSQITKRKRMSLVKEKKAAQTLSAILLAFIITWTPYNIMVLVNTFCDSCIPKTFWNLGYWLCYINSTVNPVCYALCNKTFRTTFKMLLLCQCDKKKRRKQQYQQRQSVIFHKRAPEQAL
T7 sequence (P21396 whole entry): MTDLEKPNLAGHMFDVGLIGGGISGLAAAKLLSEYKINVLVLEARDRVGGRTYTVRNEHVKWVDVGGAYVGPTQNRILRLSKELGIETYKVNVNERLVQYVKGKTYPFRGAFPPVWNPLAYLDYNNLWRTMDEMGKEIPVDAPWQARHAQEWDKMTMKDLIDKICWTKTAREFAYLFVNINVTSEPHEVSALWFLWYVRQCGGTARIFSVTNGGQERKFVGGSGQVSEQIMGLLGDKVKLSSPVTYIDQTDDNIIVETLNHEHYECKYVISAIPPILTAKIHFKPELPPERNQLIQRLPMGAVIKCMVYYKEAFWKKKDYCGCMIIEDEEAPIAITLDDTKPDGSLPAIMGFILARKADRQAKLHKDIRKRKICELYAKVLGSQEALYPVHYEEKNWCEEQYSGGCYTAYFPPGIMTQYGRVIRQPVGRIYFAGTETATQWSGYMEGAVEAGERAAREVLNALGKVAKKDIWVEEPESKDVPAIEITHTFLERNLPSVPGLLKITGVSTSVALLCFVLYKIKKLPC
T19 sequence (P08913 whole entry): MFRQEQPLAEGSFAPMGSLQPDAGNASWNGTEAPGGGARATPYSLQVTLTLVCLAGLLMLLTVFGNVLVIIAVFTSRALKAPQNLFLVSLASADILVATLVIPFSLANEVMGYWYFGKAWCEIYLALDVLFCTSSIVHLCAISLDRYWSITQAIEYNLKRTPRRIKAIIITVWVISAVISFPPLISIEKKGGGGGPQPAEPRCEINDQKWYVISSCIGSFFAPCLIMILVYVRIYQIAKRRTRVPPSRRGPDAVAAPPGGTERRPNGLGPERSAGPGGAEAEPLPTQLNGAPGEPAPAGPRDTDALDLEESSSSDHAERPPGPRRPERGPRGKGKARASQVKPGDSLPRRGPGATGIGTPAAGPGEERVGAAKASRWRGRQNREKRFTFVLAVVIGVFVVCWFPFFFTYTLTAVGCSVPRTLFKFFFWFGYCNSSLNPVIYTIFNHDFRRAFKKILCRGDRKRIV
T23 sequence (P04150 whole entry): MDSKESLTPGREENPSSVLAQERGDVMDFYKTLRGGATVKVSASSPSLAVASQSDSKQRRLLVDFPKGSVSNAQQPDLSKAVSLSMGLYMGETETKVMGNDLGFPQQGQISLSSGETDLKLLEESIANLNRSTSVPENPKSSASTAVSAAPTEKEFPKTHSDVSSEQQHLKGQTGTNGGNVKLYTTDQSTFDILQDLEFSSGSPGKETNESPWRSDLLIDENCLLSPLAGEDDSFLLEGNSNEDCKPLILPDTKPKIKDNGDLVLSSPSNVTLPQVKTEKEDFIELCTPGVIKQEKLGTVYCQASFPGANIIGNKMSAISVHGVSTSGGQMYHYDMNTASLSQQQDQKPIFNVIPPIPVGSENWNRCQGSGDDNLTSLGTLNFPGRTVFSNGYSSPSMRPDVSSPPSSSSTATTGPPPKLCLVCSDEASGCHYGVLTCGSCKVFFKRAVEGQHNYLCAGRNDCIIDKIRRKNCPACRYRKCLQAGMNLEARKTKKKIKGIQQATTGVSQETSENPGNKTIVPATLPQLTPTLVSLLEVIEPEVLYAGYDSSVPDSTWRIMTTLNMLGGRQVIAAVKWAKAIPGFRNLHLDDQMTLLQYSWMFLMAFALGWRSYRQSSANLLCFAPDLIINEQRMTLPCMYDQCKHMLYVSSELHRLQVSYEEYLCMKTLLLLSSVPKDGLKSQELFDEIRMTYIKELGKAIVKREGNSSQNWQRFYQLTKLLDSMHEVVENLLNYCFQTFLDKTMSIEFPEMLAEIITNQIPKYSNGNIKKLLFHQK
T28 sequence (P41143 whole entry): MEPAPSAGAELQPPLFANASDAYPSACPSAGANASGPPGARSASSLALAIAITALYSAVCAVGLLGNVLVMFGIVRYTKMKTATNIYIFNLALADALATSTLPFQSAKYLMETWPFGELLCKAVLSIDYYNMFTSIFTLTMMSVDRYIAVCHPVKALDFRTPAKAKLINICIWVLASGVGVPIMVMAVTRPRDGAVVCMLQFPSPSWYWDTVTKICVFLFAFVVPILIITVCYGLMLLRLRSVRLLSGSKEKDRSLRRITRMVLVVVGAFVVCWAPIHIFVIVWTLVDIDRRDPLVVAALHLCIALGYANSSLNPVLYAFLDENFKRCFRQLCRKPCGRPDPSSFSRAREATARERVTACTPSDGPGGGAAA
T6 sequence (P35348 whole entry): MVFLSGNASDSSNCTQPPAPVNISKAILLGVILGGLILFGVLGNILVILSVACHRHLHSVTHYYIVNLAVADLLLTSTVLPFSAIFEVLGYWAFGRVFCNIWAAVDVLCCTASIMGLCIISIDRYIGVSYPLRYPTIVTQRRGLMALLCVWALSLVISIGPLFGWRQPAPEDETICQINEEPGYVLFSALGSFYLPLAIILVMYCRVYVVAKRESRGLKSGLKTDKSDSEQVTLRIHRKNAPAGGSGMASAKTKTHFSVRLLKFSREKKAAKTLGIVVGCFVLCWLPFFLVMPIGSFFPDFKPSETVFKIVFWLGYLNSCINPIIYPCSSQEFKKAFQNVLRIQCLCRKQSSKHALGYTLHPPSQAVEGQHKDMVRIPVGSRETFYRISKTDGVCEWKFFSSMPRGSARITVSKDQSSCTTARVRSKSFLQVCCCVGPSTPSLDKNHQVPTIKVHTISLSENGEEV
T20 sequence (P41595 whole entry): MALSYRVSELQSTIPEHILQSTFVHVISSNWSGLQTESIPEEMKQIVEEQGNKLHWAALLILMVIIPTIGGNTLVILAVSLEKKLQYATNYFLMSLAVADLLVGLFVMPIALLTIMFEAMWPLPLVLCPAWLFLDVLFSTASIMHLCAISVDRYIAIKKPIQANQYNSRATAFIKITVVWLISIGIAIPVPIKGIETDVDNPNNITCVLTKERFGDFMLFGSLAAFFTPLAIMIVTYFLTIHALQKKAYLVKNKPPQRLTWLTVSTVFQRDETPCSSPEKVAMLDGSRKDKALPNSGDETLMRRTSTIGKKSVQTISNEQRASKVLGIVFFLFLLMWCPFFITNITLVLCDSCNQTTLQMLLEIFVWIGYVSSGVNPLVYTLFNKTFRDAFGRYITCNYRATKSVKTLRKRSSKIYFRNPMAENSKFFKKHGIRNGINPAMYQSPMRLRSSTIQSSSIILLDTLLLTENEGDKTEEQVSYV

Question: With `Cc1ncc(C)n2nc(-c3ccn4cc(-c5ccccc5)nc4n3)nc12` [CPL500036, 7-[5,8-Dimethyl-(1,2,4)triazolo (1,5-a)pyrazin-2-yl]-2-phenylimidazo (1,2-a) pyrimidine] as the compound, how does the inhibition at 1 µM (vasopressin receptor) read?
Answer: -0.8%

Question: What about the inhibition at 1 µM (κ-type opioid receptor) of the same compound?
Answer: 7.7%

Question: What about the inhibition at 1 µM [1] of the same compound?
Answer: -8.2%

Question: What about the inhibition at 1 µM (dopamine receptor type 1) of the same compound?
Answer: -8.2%

Question: What about the inhibition at 1 µM (adenosine A2A receptor) of the same compound?
Answer: -8.1%

Question: What about the inhibition at 1 µM [2] of the same compound?
Answer: 1.8%

Question: And the inhibition at 1 µM (Monoamine oxidase A)?
Answer: 1%

Question: What about the inhibition at 1 µM [3] of the same compound?
Answer: -6.1%

Question: What about the inhibition at 1 µM [4] of the same compound?
Answer: 1.8%

Question: And the inhibition at 1 µM [5]?
Answer: 0.7%

Question: And the inhibition at 1 µM [6]?
Answer: -14.6%

Question: What about the inhibition at 1 µM (serotonin receptor 1A) of the same compound?
Answer: 5.4%

Question: What about the inhibition at 1 µM (dopamine transporter) of the same compound?
Answer: -6.9%

Question: What about the inhibition at 1 µM [7] of the same compound?
Answer: -14.5%

Question: And the inhibition at 1 µM [8]?
Answer: -19.7%

Question: What about the inhibition at 1 µM (serotonin receptor 2A) of the same compound?
Answer: -8.6%

Question: And the inhibition at 1 µM [9]?
Answer: -19.6%

Question: What about the inhibition at 1 µM (dopamine receptor type 2) of the same compound?
Answer: -14.4%

Question: What about the inhibition at 1 µM [10] of the same compound?
Answer: 0.4%

Question: What about the inhibition at 1 µM (serotonin receptor 2B) of the same compound?
Answer: 10.6%

Question: And the inhibition at 1 µM [11]?
Answer: -14.6%

Question: And the inhibition at 1 µM (Endothelin receptor)?
Answer: -16.8%

Question: And the inhibition at 1 µM (glucocorticoid receptor)?
Answer: -3.2%

Question: What about the inhibition at 1 µM [12] of the same compound?
Answer: 8.2%

Question: What about the inhibition at 1 µM [13] of the same compound?
Answer: 8.8%

Question: And the inhibition at 1 µM [14]?
Answer: 1.1%

Question: What about the inhibition at 1 µM (µ -type opioid receptor) of the same compound?
Answer: -1.1%

Question: What about the inhibition at 1 µM [15] of the same compound?
Answer: 6.9%

Question: What about the “free concentration of CPL500036 in rats” value ([16]; based on the plasma protein binding and pharmacokinetic data) of the same compound?
Answer: 5%

Question: And the fraction unbound at 4 h, 10 µM ([16]; rat, plasma, pH 7.4, rats, 10 μM, 37°C, 4 h, n = 2)?
Answer: 0.08
